Series [1] is described as follows: Circular dichroism, α-helicity. The following applies: CD, TFE/water (1:1), 50 μM peptide, 25 °C, 1 mm cuvette, calculated from [θ]222. It counts as physicochemical. The method, then:
The linear and stapled peptides were dissolved in the trifluoroethanol (TFE) and water (1 : 1) to a final concentration of 50 μM, respectively. The CD spectra were obtained with 1 mm quartz cuvette on Jasco-815 spectropolarimeter at 25 °C. The measurement parameters were set up as follows: wavelength, 185–260 nm; step resolution, 0.5 nm; speed, 20 nm min^−1. All spectra were converted to a uniform scale of molar ellipticity after background subtraction. The curves were smoothed using standard parameters. The ellipticity in the acquired CD spectra was converted to the molar ellipticity using the equation: [θ] = θ/(10 × c × l), where, [θ] is the Molar ellipticity (deg cm^2. d mol^−1), θ is the observed ellipticity corrected for the buffer at a given wavelength (m deg), c is the molar concentration and l is the path length (cm). The helicity of each peptide was calculated as described in a literature based on the ellipticity of the peptide's spectrum at 222 nm and the number of amino acids in the peptide sequence.
Circular dichroism (CD) spectroscopy was used to investigate the secondary structures of the stapled and template peptides to probe structural changes induced by conformation constraint in a membrane-like milieu, including […] (TFE) and water (1 : 1). […] (Table 1, ESI ^†).

The subject of series [2] is human normal liver cell LO-2. The series can be described thus: MTT toxicity against normal cells, LO-2. It counts as cell-based. Particulars: 96 h. The protocol: (§1) Anti-tumor activity was evaluated by the standard MTT assay with a slight modification measuring the median inhibitory concentration (IC50) values.[35] HCT-116 cells, HepG2 cells and A549 cells were plated in triplicate wells into a 96-well plate at 5 × 10^3/well and cultured routinely for 24 h. Cells were incubated with increasing concentrations of hymenochirin-1B and its analogs (0.1–30 μM) and continued to culture with DMEM plus 10% FBS at 37 °C and 5% CO2. After being incubated for 96 h, the absorbance A value was determined by MTT at 540 nm. The untreated HCT-116 cells, HepG2 cells and A549 cells were used as control. Each experiment was performed in duplicate. The inhibitory rate was calculated according to the following formula: inhibitory rate = (a value of the control group − a value of the study group)/a value of the control group × 100%.
(§2) To further research the selectivity of these peptides towards cancer cells over normal cells. The growth-inhibitory activities of peptides were evaluated using the 3-(4,5-dimethylthiazol-2-yl)-2,5-diphenyltetrazolium bromide (MTT) assay against three normal cells,[35] namely, human normal liver cell LO-2, human normal Lung cell BEAS-2 and human normal kidney cell 293 T (Table S2 ^†). The experiments procedure was performed just same as growth inhibition of the peptides against tumor cells. […] It might be due to the higher averaged hydrophobicity produced by six or nine additional methylene and two olefinic carbons to the peptide to increase toxicity to human normal cells. This situation may be resolved through the addition of polar character and glycosylation into the sequence to decrease the averaged hydrophobicity to improve the selectivity of these peptides towards cancer cells over normal cells. These modifications of these peptides are under way, and the present study was focused on the improved anti-tumor activity of template peptide hymenochirin-1B.

The test system of series [3] is human normal Lung cell BEAS-2. The series can be described thus: MTT toxicity against normal cells, BEAS-2B. Particulars: 96 h. The series is classed as cell-based. The method, then: as §1, §2
Series [4] concerns human normal kidney cell 293 T. The series can be described thus: MTT toxicity against normal cells, 293T. The series is classed as cell-based. The following applies: 96 h. The protocol: as §1, §2
The nature of series [5]: Protease resistance (trypsin degradation, HPLC). It counts as in vitro ADME. The following applies: trypsin solution (5 ng/µL), room temperature, HPLC 214 nm, duplicate; for half-life at 0.1 mM: trypsin 5 ng/μL in 50 mM PBS with 2 mM CaCl2, pH 7.4 (method: trypsin buffer pH 8), peptide 0.1 mM final, sampled 0–3.5 h, HCl quench, read-out: half-life (t1/2) toward trypsin degradation (converted). The method, then: The peptides were dissolved in PBS buffer solutions (50 mM, pH = 7.4) to a final concentration of 1 mM, respectively. Trypsin was dissolved in PBS buffer (50 mM, containing 2 mM of CaCl2, pH = 8) to a final concentration of 5 ng μL^−1. Then the peptide solutions (100 μL) were incubated with trypsin solution (1 mL) at room temperature. 100 μL of digestion mixture was taken at the 0, 0.5, 1.0, 1.5, 2.0, 2.5, 3.0, and 3.5 h marks, then quenched with 20 μL of hydrochloric acid (1 M). The solution of the trypsin peptide fragments was monitored by HPLC at different time to determine the fraction of protease degradation at 214 nm. Each experiment was performed in duplicate.
To assess the protease stability of the stapled peptides, we measured their susceptibility toward trypsin degradation at room temperature in PBS buffer (pH 7.4) with monitored by HPLC. Trypsin is a protease that predominantly cleaves at the carboxyl terminus of positive charge amino acids, such as arginine and lysine. […] Especially, only about 49% of bicyclic stapled peptide H-10 was cleaved after 3.5 h (Fig. 3 and S4 ^†).
Fig. 3 Proteolytic stability of peptides incubated in trypsin solution (5 ng μL^−1 in 50 mM PBS buffer, pH = 7.4) at a final concentration of 0.1 mM. […] The percent of residual peptide was monitored by Analytic HPLC. All experiments were repeated at least three times. H-0 represents hymenochirin-1B.

The conditions of series [6]: the molecule shown is the open-chain precursor; 33-membered ring; resin; 60 steps.

Structures are written as SMILES. Positions of bridges follow the written chain, without caps; N, C: chain ends. Non-standard residues stand in square brackets, D forms with d. Residues, ends and D or L forms follow the SMILES beside them. S5 = C=CCCC[C@](C)(N)C(=O)O

On to `CC[C@H](C)[C@H](N)C(=O)N[C@@H](CCCCN)C(=O)N[C@@H](CC(C)C)C(=O)N[C@@H](CO)C(=O)N1CCC[C@H]1C(=O)N[C@@H](CCC(=O)O)C(=O)N[C@H](C(=O)N[C@@H](CCCCN)C(=O)N[C@@H](CC(=O)O)C(=O)N[C@@H](CC(N)=O)C(=O)N[C@@H](CC(C)C)C(=O)N[C@@H](CCCCN)C(=O)N[C@@H](CCCCN)C(=O)N[C@H](C(=O)N[C@@H](CC(C)C)C(=O)N[C@@H](CCCCN)C(=O)NCC(=O)N[C@@H](C)C(=O)N[C@H](C(=O)N[C@@H](CCCCN)C(=O)NCC(=O)N[C@@H](C)C(=O)N[C@H](C(=O)N[C@@H](C)C(=O)N[C@H](C(=O)N[C@@H](C)C(=O)N[C@@H](CCCCN)C(=O)N[C@@H](CCSC)C(=O)N[C@H](C(N)=O)C(C)C)C(C)C)[C@@H](C)CC)[C@@H](C)CC)C(C)C)[C@@H](C)O` [Hymenochirin-1B] (H-IKLSPETKDNLKKVLKGAIKGAIAVAKMV-NH2), for which the “Helicity (%)” value in series [1] is 48.7%. In series [2], the “IC50 (μM) LO-2, toxicity against normal cells” value (shortened to “IC50 (μM) LO-2, toxicity”) came out at 23.98 ± 0.32 µM. Also, the “IC50 (μM) BEAS-2B, toxicity against normal cells” value (from here on “IC50 (μM) BEAS-2B, toxicity”) in series [3] came out at 9.24 ± 0.25 µM. The “IC50 (μM) 293T, toxicity against normal cells” value (“IC50 (μM) 293T, toxicity” below) in series [4] stood at 11.12 ± 0.35 µM. Moreover, the half-life at 0.1 mM in series [5] was 16.8 min.

In series [6], `C=CCCCCCC[C@@](C)(NC(=O)[C@H](CCCCNC(=O)OC(C)(C)C)NC(=O)[C@H](CC(C)C)NC(=O)[C@@H](NC(=O)[C@H](CCCCNC(=O)OC(C)(C)C)NC(=O)[C@H](CCCCNC(=O)OC(C)(C)C)NC(=O)[C@H](CC(C)C)NC(=O)[C@H](CC(=O)NC(c1ccccc1)(c1ccccc1)c1ccccc1)NC(=O)[C@H](CC(=O)OC(C)(C)C)NC(=O)[C@H](CCCCNC(=O)OC(C)(C)C)NC(=O)[C@@H](NC(=O)[C@H](CCC(=O)OC(C)(C)C)NC(=O)[C@@H]1CCCN1C(=O)[C@H](COC(C)(C)C)NC(=O)[C@H](CC(C)C)NC(=O)[C@H](CCCCNC(=O)OC(C)(C)C)NC(=O)[C@@H](NC(=O)OCC1c2ccccc2-c2ccccc21)[C@@H](C)CC)[C@@H](C)OC(C)(C)C)C(C)C)C(=O)N[C@@H](C)C(=O)N[C@H](C(=O)N[C@@H](CCCCNC(=O)OC(C)(C)C)C(=O)NCC(=O)N[C@@H](C)C(=O)N[C@H](C(=O)N[C@@](C)(CCCC=C)C(=O)N[C@H](C(=O)N[C@@H](C)C(=O)N[C@@H](CCCCNC(=O)OC(C)(C)C)C(=O)N[C@@H](CCSC)C(=O)N[C@H](C(N)=O)C(C)C)C(C)C)[C@@H](C)CC)[C@@H](C)CC` displayed a ring closure, overall yield of 6.72%.

For `CC[C@H](C)[C@H](N)C(=O)N[C@@H](CCCCN)C(=O)N[C@@H](CC(C)C)C(=O)N[C@@H](CO)C(=O)N1CCC[C@H]1C(=O)N[C@@H](CCC(=O)O)C(=O)N[C@H](C(=O)N[C@@H](CCCCN)C(=O)N[C@@H](CC(=O)O)C(=O)N[C@@H](CC(N)=O)C(=O)N[C@@H](CC(C)C)C(=O)N[C@@H](CCCCN)C(=O)N[C@@H](CCCCN)C(=O)N[C@H](C(=O)N[C@@H](CC(C)C)C(=O)N[C@@H](CCCCN)C(=O)NCC(=O)N[C@@]1(C)CCCC=CCCC[C@@](C)(C(=O)N[C@H](C(=O)N[C@@H](C)C(=O)N[C@H](C(=O)N[C@@H](C)C(=O)N[C@@H](CCCCN)C(=O)N[C@@H](CCSC)C(=O)N[C@H](C(N)=O)C(C)C)C(C)C)[C@@H](C)CC)NC(=O)CNC(=O)[C@H](CCCCN)NC(=O)[C@H]([C@@H](C)CC)NC1=O)C(C)C)[C@@H](C)O` [H-5] (H-IKLSPETKDNLKKVLKG[S5]IKG[S5]IAVAKMV-NH2; staple 18-22), the “Helicity (%)” value in series [1] is on record as 69.2%. The “IC50 (μM) LO-2, toxicity” value in series [2] came out at 3.57 ± 0.52 µM. The “IC50 (μM) BEAS-2B, toxicity” value in series [3] came to 5.76 ± 0.32 µM. For the same compound, the “IC50 (μM) 293T, toxicity” value in series [4] was determined as 4.70 ± 0.32 µM. Further, the half-life at 0.1 mM in series [5] is 168 min.

Turning to `CC[C@H](C)[C@H](N)C(=O)N[C@@H](CCCCN)C(=O)N[C@@H](CC(C)C)C(=O)N[C@@H](CO)C(=O)N1CCC[C@H]1C(=O)N[C@@]1(C)CCCC=CCCC[C@@](C)(C(=O)N[C@@H](CC(C)C)C(=O)N[C@@H](CCCCN)C(=O)N[C@@H](CCCCN)C(=O)N[C@H](C(=O)N[C@@H](CC(C)C)C(=O)N[C@@H](CCCCN)C(=O)NCC(=O)N[C@@H](C)C(=O)N[C@H](C(=O)N[C@@H](CCCCN)C(=O)NCC(=O)N[C@@H](C)C(=O)N[C@H](C(=O)N[C@@H](C)C(=O)N[C@H](C(=O)N[C@@H](C)C(=O)N[C@@H](CCCCN)C(=O)N[C@@H](CCSC)C(=O)N[C@H](C(N)=O)C(C)C)C(C)C)[C@@H](C)CC)[C@@H](C)CC)C(C)C)NC(=O)[C@H](CC(=O)O)NC(=O)[C@H](CCCCN)NC(=O)[C@H]([C@@H](C)O)NC1=O` [H-2] (H-IKLSP[S5]TKD[S5]LKKVLKGAIKGAIAVAKMV-NH2; staple 6-10), in series [1], the “Helicity (%)” value was 49.3%. The “IC50 (μM) LO-2, toxicity” value in series [2] is 3.40 ± 0.32 µM. For the same compound, the “IC50 (μM) BEAS-2B, toxicity” value in series [3] was 3.12 ± 0.52 µM. The “IC50 (μM) 293T, toxicity” value in series [4] was 3.20 ± 0.33 µM. Moreover, the half-life at 0.1 mM in series [5] was 30 min.

`CC[C@H](C)[C@H](N)C(=O)N[C@@H](CCCCN)C(=O)N[C@@H](CC(C)C)C(=O)N[C@@H](CO)C(=O)N1CCC[C@H]1C(=O)N[C@@]1(C)CCCC=CCCC[C@@](C)(C(=O)N[C@@H](CC(C)C)C(=O)N[C@@H](CCCCN)C(=O)N[C@@H](CCCCN)C(=O)N[C@H](C(=O)N[C@@H](CC(C)C)C(=O)N[C@@H](CCCCN)C(=O)NCC(=O)N[C@@]2(C)CCCC=CCCC[C@@](C)(C(=O)N[C@H](C(=O)N[C@@H](C)C(=O)N[C@H](C(=O)N[C@@H](C)C(=O)N[C@@H](CCCCN)C(=O)N[C@@H](CCSC)C(=O)N[C@H](C(N)=O)C(C)C)C(C)C)[C@@H](C)CC)NC(=O)CNC(=O)[C@H](CCCCN)NC(=O)[C@H]([C@@H](C)CC)NC2=O)C(C)C)NC(=O)[C@H](CC(=O)O)NC(=O)[C@H](CCCCN)NC(=O)[C@H]([C@@H](C)O)NC1=O` [H-10] (H-IKLSP[S5]TKD[S5]LKKVLKG[S5]IKG[S5]IAVAKMV-NH2; staple 6-10, 18-22): the “Helicity (%)” value in series [1] is on record as 73.3%. The “IC50 (μM) LO-2, toxicity” value in series [2] worked out at 8.78 ± 0.32 µM. Besides, in series [3], the “IC50 (μM) BEAS-2B, toxicity” value was 5.52 ± 0.42 µM. The “IC50 (μM) 293T, toxicity” value in series [4] is 10.42 ± 0.25 µM. Also, the metabolised at 3.5 h, 0.1 mM in series [5] (trypsin 5 ng/μL in 50 mM PBS, pH 7.4, peptide 0.1 mM final, 3.5 h, read-out: peptide cleaved by trypsin after 3.5 h) is ~49%.

The values above are taken from publication PMC9081086, “Stapling strategy enables improvement of antitumor activity and proteolytic stability of host-defense peptide hymenochirin-1B” (RSC Advances, 2018).
